Experimental data reported in ChEMBL document CHEMBL5579843, “Multimechanism biological profiling of tetrahydro-β-carboline analogues as selective HDAC6 inhibitors for the treatment of Alzheimer's disease” (Eur J Med Chem, 2024).
Activity calls are given as the source filed them. No cut-off for these calls is given here.

Columns and labels:
[1] = Antioxidant activity assessed as ABTS radical scavenging activity measured after 30 mins by absorbance based analysis; format: functional
[2] = Antioxidant activity assessed as DPPH scavenging activity incubated for 0.5 hrs by absorbance based assay; format: functional
[3] = Neurotoxicity against rat PC-12 cells assessed as reduction in cell viability at 10 uM measured after 24 hrs by MTT assay; format: toxicity, cell-based; conditions: pc-12, 24 h
[4] = Neurotoxicity against human SH-SY5Y cells assessed as reduction in cell viability at 10 uM measured after 24 hrs by MTT assay; format: toxicity, cell-based
[5] = target: T1, Protein deacetylase HDAC6 (Homo sapiens, UniProt Q9UBN7); assay: Inhibition of HDAC6 (unknown origin)
T1 sequence (Q9UBN7 whole entry): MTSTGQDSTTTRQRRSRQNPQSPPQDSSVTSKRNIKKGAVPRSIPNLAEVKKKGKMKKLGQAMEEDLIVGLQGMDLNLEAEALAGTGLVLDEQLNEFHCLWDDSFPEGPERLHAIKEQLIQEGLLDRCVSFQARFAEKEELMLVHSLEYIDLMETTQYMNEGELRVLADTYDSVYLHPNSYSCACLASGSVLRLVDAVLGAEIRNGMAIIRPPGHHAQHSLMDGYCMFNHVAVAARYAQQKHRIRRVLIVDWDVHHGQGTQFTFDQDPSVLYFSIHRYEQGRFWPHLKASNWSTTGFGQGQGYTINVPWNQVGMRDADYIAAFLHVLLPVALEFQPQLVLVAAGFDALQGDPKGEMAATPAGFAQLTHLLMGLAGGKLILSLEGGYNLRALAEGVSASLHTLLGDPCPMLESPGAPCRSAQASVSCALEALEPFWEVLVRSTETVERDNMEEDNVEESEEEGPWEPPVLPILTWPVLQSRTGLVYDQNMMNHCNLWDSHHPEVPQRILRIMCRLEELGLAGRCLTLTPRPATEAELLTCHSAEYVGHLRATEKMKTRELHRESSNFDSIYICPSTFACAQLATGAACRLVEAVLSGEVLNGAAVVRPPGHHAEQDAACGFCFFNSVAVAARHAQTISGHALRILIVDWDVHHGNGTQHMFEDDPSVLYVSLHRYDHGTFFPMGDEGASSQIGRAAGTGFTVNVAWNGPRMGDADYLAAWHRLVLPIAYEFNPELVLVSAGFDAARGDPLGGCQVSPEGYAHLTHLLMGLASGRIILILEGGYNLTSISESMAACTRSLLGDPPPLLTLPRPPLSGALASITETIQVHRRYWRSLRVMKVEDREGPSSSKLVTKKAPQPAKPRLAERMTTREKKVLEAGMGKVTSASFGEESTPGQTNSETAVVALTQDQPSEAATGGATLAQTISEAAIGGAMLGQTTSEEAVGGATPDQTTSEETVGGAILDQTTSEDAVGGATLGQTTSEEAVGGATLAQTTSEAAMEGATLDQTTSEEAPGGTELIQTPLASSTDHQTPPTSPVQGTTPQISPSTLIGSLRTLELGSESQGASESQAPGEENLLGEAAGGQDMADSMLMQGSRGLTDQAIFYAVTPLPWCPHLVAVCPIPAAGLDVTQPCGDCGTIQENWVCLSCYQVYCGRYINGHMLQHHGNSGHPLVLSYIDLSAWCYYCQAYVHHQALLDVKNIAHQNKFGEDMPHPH

PC-12 [6] = assay: Neuroprotective activity against H2O2-induced oxidative damage in rat PC-12 cells assessed as increase in cell survival at 10 uM pretreated for 4 hrs followed by 800 uM H2O2 stimulation and measured after 24 hrs by MTT assay; format: functional, cell-based; conditions: time 28.0 hrs
SH-SY5Y [7] = assay: Neuroprotective activity against H2O2-induced oxidative damage in human SH-SY5Y cells assessed as increase in cell survival at 10 uM pretreated for 4 hrs followed by 200 uM H2O2 stimulation and measured after 24 hrs by MTT assay; format: functional, cell-based; conditions: time 28.0 hrs
Histone deacetylase 1 = Histone deacetylase 1 (Homo sapiens, UniProt Q13547); assay: Inhibition of HDAC1 (unknown origin)
SH-SY5Y [8] = assay: Neuroprotective activity against 6-OHDA-induced oxidative damage in human SH-SY5Y cells assessed as increase in cell survival at 1 to 10 uM pretreated for 4 hrs followed by 100 uM 6-OHDA stimulation and measured after 24 hrs by MTT assay; format: functional, cell-based; conditions: dose 1-10 µM, time 28.0 hrs
SH-SY5Y [9] = assay: Neuroprotective activity against H2O2-induced oxidative damage in human SH-SY5Y cells assessed as increase in cell survival pretreated for 4 hrs followed by 200 uM H2O2 stimulation and measured after 24 hrs by MTT assay; format: functional, cell-based; conditions: dose 1-10 µM, time 28.0 hrs
PC-12 [10] = assay: Neuroprotective activity against H2O2-induced oxidative damage in rat PC-12 cells assessed as increase in cell survival pretreated for 4 hrs followed by 800 uM H2O2 stimulation and measured after 24 hrs by MTT assay; format: functional, cell-based; conditions: dose 1-10 µM, time 28.0 hrs
PC-12 [11] = assay: Neuroprotective activity against H2O2-induced oxidative damage in rat PC-12 cells assessed as increase in Nrf2 protein expression at 10 uM pretreated for 4 hrs followed by H2O2 stimulation and measured after 24 hrs by Western blot analysis; format: functional, cell-based; conditions: time 28.0 hrs
PC-12 [12] = assay: Neuroprotective activity against H2O2-induced oxidative damage in rat PC-12 cells assessed as increase in catalase protein expression at 10 uM pretreated for 4 hrs followed by H2O2 stimulation and measured after 24 hrs by Western blot analysis; format: functional, cell-based; conditions: time 28.0 hrs
PC-12 [13] = assay: Neuroprotective activity against 6-OHDA-induced oxidative damage in rat PC-12 cells assessed as increase in cell survival at 1 to 10 uM pretreated for 4 hrs followed by 500 uM 6-OHDA stimulation and measured after 24 hrs by MTT assay; format: functional, cell-based; conditions: dose 1-10 µM, time 28.0 hrs
PC-12 [14] = assay: Neuroprotective activity against H2O2-induced oxidative damage in rat PC-12 cells assessed as SOD activity at 10 uM pretreated for 4 hrs followed by H2O2 stimulation and measured after 24 hrs by WST-8 assay; format: functional; conditions: time 28 hrs
Danio rerio = species on record: Danio rerio; assay: Cognitive improvement ability in scopolamine induced zebrafish alzheimer disease model assessed as improvement in motor activity by measuring increase in total distance of swimming at 20 mg/L pretreated with scopolamine for 30 mins followed by compound addition for 3 mins by T-maze test; format: functional, organism-based
[15] = Neurotoxicity against human SH-SY5Y cells assessed as cell survival rate at 10 uM measured after 24 hrs by MTT assay relative to control; format: toxicity, cell-based; conditions: read-out: Survival
[16] = Neurotoxicity against rat PC-12 cells assessed as cell survival rate at 10 uM measured after 24 hrs by MTT assay relative to control; format: toxicity, cell-based; conditions: read-out: Survival

Chain of Histone deacetylase 1 (Q13547 whole entry): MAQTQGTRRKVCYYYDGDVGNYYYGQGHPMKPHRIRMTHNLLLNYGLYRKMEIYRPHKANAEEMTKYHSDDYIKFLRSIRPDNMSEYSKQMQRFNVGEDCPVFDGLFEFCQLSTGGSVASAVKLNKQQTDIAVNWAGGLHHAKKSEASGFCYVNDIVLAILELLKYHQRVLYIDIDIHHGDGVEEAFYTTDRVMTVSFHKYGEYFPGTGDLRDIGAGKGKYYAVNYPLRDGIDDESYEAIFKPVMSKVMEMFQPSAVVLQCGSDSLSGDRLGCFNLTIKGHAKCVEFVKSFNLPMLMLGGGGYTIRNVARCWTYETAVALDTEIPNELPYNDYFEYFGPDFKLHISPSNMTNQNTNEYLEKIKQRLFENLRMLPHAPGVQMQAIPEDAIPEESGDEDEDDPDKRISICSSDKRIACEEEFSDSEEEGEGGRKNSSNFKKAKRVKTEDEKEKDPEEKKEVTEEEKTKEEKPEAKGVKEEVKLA

O=C1O[C@H]([C@@H](O)CO)C(O)=C1O [ASCORBIC ACID]
IC50 [1]: 25.5 µM
IC50 [2]: 23.8 µM

O=C(/C=C/c1ccc(CN2CCc3[nH]c4ccccc4c3C2)cc1)NO
Activity [3]: Toxic
Activity [4]: Toxic

O=C(NO)c1ccc(C2NCCc3c2[nH]c2ccccc32)cc1 (centres undefined)
IC50 [5]: > 1 µM

O=C(CCCCCC(=O)N1CCc2c([nH]c3ccccc23)C1)NO
Activity (PC-12 [6]): inactive
IC50 [1]: 14.4 µM
IC50 [2]: 28.4 µM
Activity (SH-SY5Y [7]): inactive

Cc1ccc2[nH]c3c(c2c1)CN(Cc1ccc(C(=O)NO)cc1)CC3
IC50 [1]: 9.97 µM
IC50 [2]: 28.2 µM

COc1ccc2[nH]c3c(c2c1)CCN(Cc1ccc(/C=C/C(=O)NO)cc1)C3
IC50 (Histone deacetylase 1): 0.0108 µM
Activity [3]: Toxic
Activity [4]: Toxic
IC50 [5]: 0.0197 µM

O=C(NO)c1ccc(CNC(=O)[C@@H]2Cc3c([nH]c4ccccc34)[C@@H](c3ccc(Cl)cc3)N2CC2CC2)cc1
IC50 (Histone deacetylase 1): 0.494 µM

O=C(NO)c1ccc(CC(=O)N2CCc3c([nH]c4ccccc34)C2)cc1
Activity (PC-12 [6]): inactive
IC50 [1]: 13.8 µM
IC50 [2]: 30.3 µM
Activity (SH-SY5Y [7]): inactive

O=C(NO)c1ccc(CN2CCc3[nH]c4ccccc4c3C2)cc1
IC50 [1]: 17.2 µM
IC50 [2]: 26.5 µM

O=C(NO)c1ccc(CN2CCc3c([nH]c4ccccc34)C2)cc1
IC50 [1]: 11.4 µM
IC50 (Histone deacetylase 1): 16.5 µM
IC50 [2]: 35.6 µM
IC50 [5]: 0.0138 µM

O=C(NO)c1ccc(C2c3[nH]c4ccccc4c3CCN2Cc2ccccc2)cc1 (centres undefined)
IC50 [5]: > 1 µM

O=C(NO)c1cccc(CN2CCc3[nH]c4ccccc4c3C2)c1
IC50 [1]: 16.9 µM
IC50 [2]: 24.3 µM

CN1CCc2c(c3ccccc3n2Cc2ccc(C(=O)NO)cc2)C1 [TUBASTATIN A]
Activity (SH-SY5Y [8]): Active
Activity (SH-SY5Y [9]): Dose-Dependent Effect
IC50 [1]: 12.1 µM
Activity (PC-12 [10]): Dose-Dependent Effect
Activity (PC-12 [11]): Active
IC50 [2]: 28.2 µM
Activity (PC-12 [12]): Active
Activity (PC-12 [13]): Active
Activity (PC-12 [14]): 13.7 U/mg

O=C(CCCCCCC(=O)N1CCc2c([nH]c3ccccc23)C1)NO
Activity [3]: Toxic
Activity [4]: Toxic

COc1ccc2c3c1O[C@H]1C[C@@H](O)C=C[C@@]31CCN(C)C2
Activity (Danio rerio): Active

O=C(NO)c1ccc(CN2CCc3[nH]c4ccc(F)cc4c3C2)cc1
IC50 [1]: 9.96 µM
IC50 [2]: 21 µM

O=C(CCCCCCC(=O)Nc1ccccc1)NO [VORINOSTAT]
viability at 24 h, 10 µM [15]: < 80%
viability at 24 h, 10 µM [16]: < 80%

COc1ccc2[nH]c3c(c2c1)CCN(Cc1ccc(C(=O)NO)cc1)C3
IC50 [1]: 12.6 µM
IC50 (Histone deacetylase 1): 23.7 µM
IC50 [2]: 29.1 µM
IC50 [5]: 0.0164 µM
